Drawing on patent US12037322B2, “AHR agonists” (Eli Lilly and Company, priority 2021, dated 2024), this text covers EC50 for 27 molecules.

The structures appear in SMILES notation.

The test concerns the target T1, hAHR (Homo sapiens, UniProt P35869).
T1 construct: expressed in transfected cells
T1 sequence (P35869 11-848): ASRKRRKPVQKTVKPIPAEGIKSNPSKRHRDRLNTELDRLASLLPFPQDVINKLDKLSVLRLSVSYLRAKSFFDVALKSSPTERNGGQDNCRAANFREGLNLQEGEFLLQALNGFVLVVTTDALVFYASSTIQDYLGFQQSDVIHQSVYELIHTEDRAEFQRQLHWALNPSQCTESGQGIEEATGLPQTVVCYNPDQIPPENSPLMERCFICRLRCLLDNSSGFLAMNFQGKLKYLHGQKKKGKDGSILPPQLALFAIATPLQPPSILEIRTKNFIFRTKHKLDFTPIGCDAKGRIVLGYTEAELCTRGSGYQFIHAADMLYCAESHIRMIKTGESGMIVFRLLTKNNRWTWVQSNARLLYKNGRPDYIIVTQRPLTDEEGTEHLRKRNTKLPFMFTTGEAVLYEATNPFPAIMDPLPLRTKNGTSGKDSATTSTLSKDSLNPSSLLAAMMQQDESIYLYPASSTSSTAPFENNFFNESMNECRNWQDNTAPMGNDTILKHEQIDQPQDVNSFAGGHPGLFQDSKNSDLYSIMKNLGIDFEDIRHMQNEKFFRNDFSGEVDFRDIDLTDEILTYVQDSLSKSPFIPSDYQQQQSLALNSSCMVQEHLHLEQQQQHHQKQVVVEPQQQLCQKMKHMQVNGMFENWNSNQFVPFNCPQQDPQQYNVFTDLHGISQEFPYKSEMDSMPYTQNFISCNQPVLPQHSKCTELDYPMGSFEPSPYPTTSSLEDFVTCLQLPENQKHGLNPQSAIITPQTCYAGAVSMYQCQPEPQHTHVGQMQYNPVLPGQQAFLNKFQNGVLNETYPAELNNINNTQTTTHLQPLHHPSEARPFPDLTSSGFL
As to the kind of experiment: hAHR nuclear translocation assay. It is filed as cell-based. The conditions noted are these: Jump-In T-REx HEK293 cells expressing AhR-EGFP; 45 min incubation; ratio of EGFP intensity in nuclear over cytosol; 20-point curve. On the procedure:
Stable cell lines were established using Jump-In™ T-REx™ HEK293 Retargeting Kit (Life Technologies). hAhR cDNA was cloned into the pJTI R4 CMV-TO EGFP vector. The EGFP was cloned to the C-terminal of AHR to form AhR-EGFP chimera. The pJTI R4 CMV-TO AhR-EGFP vector was transfected using FuGENE® HD into Jump-In™ T-REx™ HEK293 cells. Transfected cells were selected using 2.5 mg/ml G418 for 10 to 14 days, then expanded, harvested, and suspended in freeze media (FBS with 8% DMSO) at 2×10^7 cells/mL, and aliquots were stored in liquid nitrogen. One day before the assay date, cells were thawed and resuspended in DMEM with 5% FBS in the presence of 1 μg/mL Doxycycline and plated into ploy-L-Lysine coated […]-384 ULTRA Microplates (Perkin Elmer) at 12,000 to 15,000 cells per well and incubated at 37° C. and 5% CO2 overnight. On the assay date, compound was serially diluted (1:2) into 384-well nunc plates with DMSO using acoustic dispensing (ECHO). The dose response was a 20-point curve. Compound was resuspended in 40 μL of DMEM plus 0.1% BSA. The culture media was damped and 25 μL of DMEM plus 0.1% BSA was added, then 25 μL of compound in DMEM plus 0.1% BSA was added into cell plates. Cells were incubated with compounds at 37° C. and 5% CO2 for 45 min.
The final DMSO concentration was 0.2%. The media was damped after 45 minutes incubation. The cells were fixed with 40 μL of cold MeOH (−20° C.) for 20 min. The MeOH was damped and 50 μL of DPBS containing 1 μg/mL Hochst was added into the cell plates. The intensity of EGFP was quantitated by using OPERA PHENIX® or Operetta™ high content image system (Perkin Elmer) with 20× Water Objective and five field per well. The ratio of EGFP fluorescent intensity in nuclear over cytosol was analyzed using a 4-parameter nonlinear logistic equation to determine the potency of AhR agonists.
With `CCN1CCc2c(cc(C(=O)Nc3ccccc3)c(=O)n2C)C1` [Example 107, 6-Ethyl-1-methyl-2-oxo-N-phenyl-7,8-dihydro-5H-1,6-naphthyridine-3-carboxamide], the EC50 was 108 nM.

With `CC1CCc2c1c(O)c(C(=O)Nc1ccccn1)c(=O)n2C` (single isomer, unassigned) [Example 89, 4-Hydroxy-1,5-dimethyl-2-oxo-N-(2-pyridyl)-6,7-dihydro-5H-cyclopenta[b]pyridine-3-carboxamide], the EC50 was 2.33 nM.

In the case of `CC1CCc2c1cc(C(=O)Nc1ncccn1)c(=O)n2C` (single isomer, unassigned) [Example 82, 1,5-Dimethyl-2-oxo-N-pyrimidin-2-yl-6,7-dihydro-5H-cyclopenta[b]pyridine-3-carboxamide], the EC50 was determined as 25.1 nM.

Take `CC1CCc2c1cc(C(=O)Nc1ccc(C(F)(F)F)cn1)c(=O)n2C` (single isomer, unassigned) [Example 59, 1,5-Dimethyl-2-oxo-N-[5-(trifluoromethyl)-2-pyridyl]-6,7-dihydro-5H-cyclopenta[b]pyridine-3-carboxamide]: the EC50 worked out at 3.59 nM.

For `CC1Cc2c(O)c(C(=O)Nc3ccccn3)c(=O)n(C)c2C1` (single isomer, unassigned) [Example 88, 4-Hydroxy-1,6-dimethyl-2-oxo-N-(2-pyridyl)-6,7-dihydro-5H-cyclopenta[b]pyridine-3-carboxamide], the EC50 was found to be 0.897 nM.

Regarding `C[C@@H]1CCc2c1cc(C(=O)Nc1ncco1)c(=O)n2C` [Example 74, (5R)-1,5-Dimethyl-N-oxazol-2-yl-2-oxo-6,7-dihydro-5H-cyclopenta[b]pyridine-3-carboxamide], the EC50 came out at 19 nM.

Turning to `Cn1c2c(c(O)c(C(=O)Nc3ccccn3)c1=O)CC(C)(C)C2` [Example 42, 4-Hydroxy-1,6,6-trimethyl-2-oxo-N-(2-pyridyl)-5,7-dihydrocyclopenta[b]pyridine-3-carboxamide], the EC50 worked out at 9.41 nM.

On to `C[C@H]1CCc2c1cc(C(=O)Nc1ccccc1)c(=O)n2C` [Example 67, (5S)-1,5-Dimethyl-2-oxo-N-phenyl-6,7-dihydro-5H-cyclopenta[b]pyridine-3-carboxamide], for which the EC50 came to 0.5 nM.

For `C[C@H]1CCc2c1cc(C(=O)Nc1ncc(Cl)cn1)c(=O)n2C` [Example 24, (5S)-N-(5-Chloropyrimidin-2-yl)-1,5-dimethyl-2-oxo-6,7-dihydro-5H-cyclopenta[b]pyridine-3-carboxamide], the EC50 is 2.45 nM.

As to `CC1CCc2c1cc(C(=O)Nc1ccc(C(F)(F)F)cn1)c(=O)n2C` (single isomer, unassigned) [Example 58, 1,5-Dimethyl-2-oxo-N-[5-(trifluoromethyl)-2-pyridyl]-6,7-dihydro-5H-cyclopenta[b]pyridine-3-carboxamide], the EC50 worked out at 3.59 nM.

For the molecule `Cn1c2c(cc(C(=O)Nc3ccccc3)c1=O)CC(C)(C)CC2` [Example 105, 1,6,6-Trimethyl-2-oxo-N-phenyl-7,8-dihydro-5H-quinoline-3-carboxamide], the EC50 stood at 0.64 nM.

Turning to `CCC1CCc2c1cc(C(=O)Nc1ncc(F)cn1)c(=O)n2C` (single isomer, unassigned) [Example 115, 5-ethyl-N-(5-fluoropyrimidin-2-yl)-1-methyl-2-oxo-6,7-dihydro-5H-cyclopenta[b]pyridine-3-carboxamide], the EC50 is 2.96 nM.

For the molecule `CC1Cc2c(O)c(C(=O)Nc3ncccn3)c(=O)n(C)c2C1` (single isomer, unassigned) [Example 84, 4-Hydroxy-1,6-dimethyl-2-oxo-N-pyrimidin-2-yl-6,7-dihydro-5H-cyclopenta[b]pyridine-3-carboxamide], the concentration for a half-maximal effect (EC50) amounted to 8.67 nM.

On to `CC1CCc2c1c(O)c(C(=O)Nc1ccsn1)c(=O)n2C` (single isomer, unassigned) [Example 39, 4-Hydroxy-N-isothiazol-3-yl-1,5-dimethyl-2-oxo-6,7-dihydro-5H-cyclopenta[b]pyridine-3-carboxamide], for which the EC50 was 0.378 nM.

For the molecule `Cn1c2c(cc(C(=O)Nc3ccccc3)c1=O)COCC2` [Example 106, 1-Methyl-2-oxo-N-phenyl-7,8-dihydro-5H-pyrano[4,3-b]pyridine-3-carboxamide], the EC50 stood at 25.9 nM.

For `C[C@@H]1CCc2c1cc(C(=O)Nc1ncc(F)cn1)c(=O)n2C` [Example 12, (5R)-N-(5-Fluoropyrimidin-2-yl)-1,5-dimethyl-2-oxo-6,7-dihydro-5H-cyclopenta[b]pyridine-3-carboxamide], the EC50 worked out at 7.9 nM.

For the molecule `C[C@H]1CCc2c1cc(C(=O)Nc1cnsc1)c(=O)n2C` [Example 21, (5S)-N-Isothiazol-4-yl-1,5-dimethyl-2-oxo-6,7-dihydro-5H-cyclopenta[b]pyridine-3-carboxamide], the EC50 stood at 4.72 nM.

With `CC1CCc2c1c(O)c(C(=O)Nc1ccns1)c(=O)n2C` (single isomer, unassigned) [Example 37, 4-Hydroxy-N-isothiazol-5-yl-1,5-dimethyl-2-oxo-6,7-dihydro-5H-cyclopenta[b]pyridine-3-carboxamide], the EC50 is 1.97 nM.

Consider `Cn1c2c(cc(C(=O)Nc3ncccn3)c1=O)CCCC2` [Example 103, 1-Methyl-2-oxo-N-pyrimidin-2-yl-5,6,7,8-tetrahydroquinoline-3-carboxamide], for which the EC50 turned out to be 27 nM.

As for `CC1Cc2c(O)c(C(=O)Nc3ccccn3)c(=O)n(C)c2C1` (single isomer, unassigned) [Example 87, 4-Hydroxy-1,6-dimethyl-2-oxo-N-(2-pyridyl)-6,7-dihydro-5H-cyclopenta[b]pyridine-3-carboxamide], the EC50 came to 27.3 nM.

Regarding `CC1CCc2c1c(O)c(C(=O)Nc1ncccc1F)c(=O)n2C` (stereo not drawn) [Example 29, N-(3-Fluoro-2-pyridyl)-4-hydroxy-1,5-dimethyl-2-oxo-6,7-dihydro-5H-cyclopenta[b]pyridine-3-carboxamide], the EC50 was 2.23 nM.

Turning to `C[C@@H]1CCc2c1cc(C(=O)Nc1ccccc1)c(=O)n2C` [Example 66, (5R)-1,5-Dimethyl-2-oxo-N-phenyl-6,7-dihydro-5H-cyclopenta[b]pyridine-3-carboxamide], the EC50 was determined as 0.525 nM.

As for `C[C@@H]1CCc2c1cc(C(=O)Nc1ccsn1)c(=O)n2C` [Example 18, (5R)-N-Isothiazol-3-yl-1,5-dimethyl-2-oxo-6,7-dihydro-5H-cyclopenta[b]pyridine-3-carboxamide], the EC50 worked out at 1.32 nM.

As for `CC1CCc2c1cc(C(=O)Nc1ccc(F)cn1)c(=O)n2C` (stereo not drawn) [Example 2, N-(5-Fluoro-2-pyridyl)-1,5-dimethyl-2-oxo-6,7-dihydro-5H-cyclopenta[b]pyridine-3-carboxamide], the EC50 worked out at 9.78 nM.

`CC1CCc2c1cc(C(=O)Nc1ccc(F)cn1)c(=O)n2C` (single isomer, unassigned) [Example 56, N-(5-Fluoro-2-pyridyl)-1,5-dimethyl-2-oxo-6,7-dihydro-5H-cyclopenta[b]pyridine-3-carboxamide]: the EC50 was determined as 2.44 nM.

`CC1CCc2c1c(O)c(C(=O)Nc1ccc(C(F)(F)F)cn1)c(=O)n2C` (stereo not drawn) [Example 33, 4-Hydroxy-1,5-dimethyl-2-oxo-N-[5-(trifluoromethyl)-2-pyridyl]-6,7-dihydro-5H-cyclopenta[b]pyridine-3-carboxamide]: the EC50 amounted to 2.64 nM.

`CC1CCc2c1c(O)c(C(=O)Nc1ncccc1F)c(=O)n2C` (single isomer, unassigned) [Example 92, N-(3-Fluoro-2-pyridyl)-4-hydroxy-1,5-dimethyl-2-oxo-6,7-dihydro-5H-cyclopenta[b]pyridine-3-carboxamide]: the EC50 came out at 1.44 nM.

A word on the EC50: it is the midpoint of the concentration-response curve.
